Data from patent US6051417A, “Prostate cancer drug screening using hKLK2 enhancer” (Calydon, Inc., priority 1997, dated 2000).
pEC50: −log10 of the molar value. Like-named read-outs stand apart in the source and are kept apart here.

Columns and labels:
[1] = Metabolism of dihydrotestosterone in CN1013 cell line (Testosterone ELISA); conditions: human, cn1013 cells
CN1013 cells = experiment: as above
[2] = tested on: PSE-Luc/LNCaP cell line CN1013; experiment: Stably transfected PSE-Luc/LNCaP cell line CN1013 (and subclone CN1013.7), luciferase assay; conditions: for inhibition of luciferase expression after induction with 1 nM R1881: CN1013, all anti-androgen concentrations examined; for concentration, relative to R1881, giving luciferase expression levels similar to R1881 / luciferase expression at physiological concentrations: CN1013, anti-androgen alone
[3] = tested on: PSE-Luc (PSA enhancer/promoter-luciferase) in LNCaP cells; experiment: Transient transfection of LNCaP cells with PSE-Luc, luciferase assay
[4] = tested on: CMV-Luc/LNCaP stable cell line; experiment: CMV-Luc/LNCaP stable cell line luciferase expression (control); format: cell-based, human; conditions: 10-1000 nM androgen
Protocol: CMV-Luc/LNCaP Cell Line. Transfections of the control plasmid, CMV-Luc, into LNCaP cells were done in the same fashion as for PSE-Luc. The stable cell line CN1006, containing CMV-Luc, was obtained by selection with G418. The luciferase assay was performed as described above.
Luciferase Expression of CMV-Luc/LNCaP Stable Cell Line. LNCaP clones containing the CMV-Luc gene were screened for stable expression of the luciferase gene (i.e. selection of stable cell line). A 3-4 fold increase in expression levels over the uninduced cells was observed upon the addition of 10-1000 nM androgen. A similar androgen stimulation of CMV-Luc expression in transient transfection of LNCaP cells was reported by Pang et al., Hum. Gene Ther. (1995) 6:1417-1426. The slight increase in expression levels was attributed to cell proliferation resulting from increased R1881 addition.

[5] = tested on: hKLK2 promoter/enhancer-luciferase constructs in 293 cells; experiment: hKLK2 promoter/enhancer-driven luciferase expression in transfected 293 cells; format: cell-based, human; conditions: 1 nM R1881
Protocol: (§1) Knowing that the PSA enhancer is tissue specific, a series of experiments was conducted to determine if the same was true for the hKLK2 enhancer. In the first experiment, LNCaP cells (a PSA-producing prostate cancer cell line) and 293s (a human embryonic kidney cell line) were transfected with CN299 or CN322 (Example 2). Half of the dishes were supplemented with 1 nM R1881, and the cells were harvested 48 hours post transfection. […] The results of this experiment again support the conclusion that the hKLK2 enhancer is androgen inducible.

[6] = tested on: hKLK2 promoter/enhancer-luciferase constructs in LNCaP cells; experiment: hKLK2 promoter/enhancer-driven luciferase expression in transfected LNCaP cells; format: cell-based, human; conditions: for fold induction at 0.001 µM: Homo sapiens, LNCaP, 48 h
Source text: To assess the function of the DNA segment containing the enhancer, a series of constructs was generated by inserting the hKLK2 5'-flanking region, shown schematically in FIG. 2, upstream of the luciferase reporter gene. The activity of these fragments was compared with that of CN299, a plasmid with the full hKLK2 promoter (-605 to +33) driving the expression of firefly luciferase. The constructs are as follows:
To determine the effect of the 12 kbp 5'-flanking sequence on promoter activity, two constructs were created: CN299 and CN322. The hKLK2 promoter was cloned upstream of the luc gene to create CN299, as described in Example 2. The entire 12 kbp sequence upstream of the hKLK2 gene (including the promoter) was cloned upstream of the luc gene to create CN322, as described in Example 2. Each construct was then used to transfect LNCaP cells. The media in half of the dishes was supplemented with 0.5 nM R1881. The cells were harvested 48 hours post transfection and the luciferase activity was measured. […] At both R1881 concentrations tested, CN322 had higher activity than CN299.
To determine if the hKLK2 5'-flanking sequence did indeed contain an androgen responsive element, two experiments were conducted. In the first experiment, LNCaP cells were transfected with CN322, the transformants were incubated in medium containing various concentrations of R1881, and 48 hours after transfection, luciferase activity was measured. […] Peak induction of activity was estimated at 1 nM R1881, about 9 fold over the 0 nM activity.
as §1
(§2) This 3.8 kbp fragment was fused upstream of the minimal hKLK2 promoter and then cloned upstream of the luc gene, creating CN355. A variety of cell lines were transfected with CN322 or CN355 by incubating them with the complexes in complete media overnight. The complexes were then aspirated and the media was replaced with stripped serum media. The media in half of the plates was supplemented with 1 nM R1881. The cells were then harvested 48 hours after the removal of the DNA-lipid complexes and tested for luciferase activity.

[7] = tested on: CN322 or CN355 in OVCAR, 293, PC3 cells; experiment: hKLK2 enhancer/promoter luciferase activity in other cell lines (OVCAR, 293, PC3); format: cell-based; conditions: Homo sapiens, 48 h, read-out: fold induction of activity
Protocol: FIG. 7 is a bar graph depicting the activity of the hKLK2 enhancer/promoter in various cell lines. Various cell lines were transfected with either CN322 or CN355, and, after an overnight incubation in complete medium, were incubated in the presence or absence of R1881. CN355 contains a 3.8 kb fragment from approximately -6200 to approximately -2400 of the hKLK2 enhancer fused to the minimal hKLK2 promoter to control luciferase expression. The cell lines used were: OVCAR, human ovarian adenocarcinoma; 293, transformed human primary embryonal kidney; PC3, human grade IV prostate adenocarcinoma; LNCaP, metastatic human prostate adenocarcinoma.
as §2

## C[C@]12CCC(=O)C[C@@H]1CC[C@@H]1[C@@H]2CC[C@]2(C)[C@@H](O)CC[C@@H]12 [DHT, dihydrotestosterone]
[1]
  half-life at 0.01 µM: ~1.1 h
CN1013 cells
  time within which metabolism occurs after addition to CN1013 cells: 1 to 4 h
CN1013 cells; medium without cells
  concentration when unexposed to CN1013 cells: remained constant
[2]; CN1013
  amounts required for comparable expression relative to R1881: 100-200 fold
[3]
  amount required relative to R1881 to obtain comparable luciferase activity: approximately 100 fold
[3]; DHT 100 and 200 nM
  luciferase expression: 2,500-3,000 RLUs

## C[C@]1(O)CC[C@H]2[C@@H]3CCC4=CC(=O)CCC4=C3C=C[C@@]21C [R1881, methyl trienolone]
[2]; CN1013
  concentration giving peak values of induction: 0.1 to 1 nM
[2]; Homo sapiens, LNCaP, read-out: EC50 of luciferase induction
  pEC50: 10.12
[2]; subclone CN1013.7
  fold induction of luciferase: 100-200 fold
[4]
  fold increase in expression levels over uninduced cells: 3-4 fold
[5]; CN299, 293 cells
  change of luciferase activity: reduction of activity
[5]; CN322, 293 cells
  change of luciferase activity: reduction of luciferase activity
[6]; CN322, LNCaP, 0-10 nM R1881
  response of CN322 luciferase activity to concentration: concentration dependent manner
[6]; CN379, same assay methods, R1881
  fold induction of luciferase activity: approximately 54 fold
[6]; read-out: fold induction of activity vs 0 nM R1881, CN299, LNCaP, 1 nM R1881, 48 hours
  fold induction at 0.001 µM: 2 to 3
[6]; read-out: fold induction of activity vs 0 nM R1881, CN322, LNCaP, 1 nM R1881, 48 hours (Example 5 first experiment, FIG. 6)
  fold induction at 0.001 µM: 17
[6]; read-out: fold induction of activity, CN322, LNCaP, 1 nM R1881, stripped serum media, 48 hours (FIG. 7)
  fold induction at 0.001 µM: ~100
[6]; read-out: fold induction of activity, CN355, LNCaP, 1 nM R1881, stripped serum media, 48 hours (FIG. 7)
  fold induction at 0.001 µM: 35
[6]; read-out: peak induction of luciferase activity over the 0 nM activity, CN322, LNCaP, 1 nM R1881, 48 hours after transfection
  fold induction at 0.001 µM: ~9
[3]
  concentration giving peak levels of luciferase expression: 1 nM
[3]; 1-50 nM R1881, 48 hours
  luciferase expression: 3,000-3,500 RLUs
[7]
  fold induction at 0.001 µM: 1 to 2

## CC(=O)O[C@]1(C(C)=O)CC[C@H]2[C@@H]3C=C(Cl)C4=CC(=O)[C@@H]5C[C@@H]5[C@]4(C)[C@H]3CC[C@@]21C [cyproterone acetate]
[2]
  inhibition of luciferase expression after induction with 1 nM R1881: neither inhibition nor induction
  concentration, relative to R1881, giving luciferase expression levels similar to R1881: 100-1,000 fold
  luciferase expression at physiological concentrations: zero or minimal expression

## CC(C)(O)C(=O)Nc1ccc([N+](=O)[O-])c(C(F)(F)F)c1 [hydroxyflutamide]
[2]
  inhibition of luciferase expression after induction with 1 nM R1881: neither inhibition nor induction
  concentration, relative to R1881, giving luciferase expression levels similar to R1881: 100-1,000 fold
  luciferase expression at physiological concentrations: zero or minimal expression

## CC1=C(/C=C/C(C)=C/C=C/C(C)=C/C(=O)O)C(C)(C)CCC1 [retinoic acid]
[2]; CN1013, non-steroidal ligand unrelated to androgen receptor
  induction or inhibition of CN1013 luciferase: did not result in either induction or inhibition
